Here are results for one compound from patent EP0140492B1 (WARNER-LAMBERT COMPANY, priority 1983, dated 1985).

The conditions of data set [1]: water and alcohol; cited from earlier work.
Data set [2] is described as follows: Plasma levels of isoxicam and bioavailability parameters after a single oral dose to beagle dogs. The data set is classed as in vivo. The conditions noted are these: beagle, dog, in vivo, po; for Tmax: Tmax (hours). The method, then: The range for the individual animals was 51.4 to 63.0 µg/ml with three animals having a peak time of two hours and the final animal at eight hours. These plasma levels were considerably higher when compared to micronized isoxicam. […] Peak plasma concentrations for individual animals ranged from […] between three and six hours postdose.
Areas under the plasma concentrations versus time curve (AUC^0-∞) were calculated using the trapezoidal rule and extrapolated to infinity with the appropriate elimination rate constants.

For data set [3] the following is noted: cited from earlier work.

Turning to `Cc1cc(NC(=O)C2=C(O)c3ccccc3S(=O)(=O)N2C)no1` [micronized isoxicam, 4 - hydroxy - 2 - methyl - N - (5 - methyl - 3 - isoxazolyl) - 2H - 1,2 - benzothiazine - 3 - carboxamide - 1,1 - dioxide, reference compound], in data set [1], the solubility entry is “practically insoluble in water and alcohol”. In addition, the exposure (AUC) – broadly, the area under the concentration-time curve, a measure of exposure – in data set [2] (100 mg, AUC^0-∞) amounted to 808 µg·h/mL; in data set [2] (100 mg, mean AUC^0-∞), 808 ± 230 µg·h/mL. Also, the Cmax (as a rule, the highest concentration seen after dosing) in data set [2] (100 mg, Cmax (µg/ml)) was found to be 15400 ng/mL; in data set [2] (100 mg, Mean Cmax), 15400 ± 4200 ng/mL. Further, the half-life (in general, the time needed for the level to fall by half in the phase considered) in data set [2] (100 mg, Half-life (hours)) is 35.5 h; in data set [2] (100 mg, Mean half-lives (elimination, linear regression of semilogarithmic data)), 35.5 ± 7.1 h; in data set [2] (Half-life (hours)) it was 32.6 h. Besides, the values for the Tmax in data set [2] (100 mg) and in data set [2] were 4.2 h and 6 h, respectively. In addition, the pKa result in data set [3] is on record as “about 3.65”.
